Where a SMILES comes first, the peptide text is derived from it. Bridges are numbered along the chain shown (N, C = ends).
How the values were obtained:
[1] = test system: endothelial cell permeability in vivo; assay: Miles assay for vascular permeability; conditions: rat, 100 μl subdermal injection of 100 μg/ml peptide in PBS, Evans blue i.v. 15 min later; for dye extracted from excised injection sites (optical density of dimethylformamide extracts at 620 nm): 24 h extraction, FIG. 6 and FIG. 8; for accumulation of Evans blue at the injection sites (visual): read 15 min after dye, FIG. 5
Description: The ability of an agent to modulate cell adhesion may generally be evaluated in vivo by assessing the effect on vascular permeability utilizing the Miles assay (McClure et al., J. Pharmacological& Toxicological Methods 32:49-52, 1994). Briefly, a candidate modulating agent may be dissolved in phosphate buffered saline (PBS) at a concentration of 100 μg/ml. Adult rats may be given 100 μl subdermal injections of each peptide solution into their shaved backs, followed 15 minutes later by a single 250 μl injection of 1% Evans blue dissolved in PBS into their tail veins. The subdermal injection sites may be visually monitored for the appearance of blue dye. Once the dye appears (about 15 minutes after injection), each subdermal injection site may be excised, weighed, and placed in 1 ml dimethylformamide for 24 hours to extract the dye. The optical density of the dye extracts may then be determined at 620 nm. In general, the injection of 0.1 ml of modulating agent (at a concentration of 0.1 mg/ml) into the backs of rats causes an increase of dye accumulation at the injection sites of at least 50%, as compared to dye accumulation at sites into which PBS has been injected.
This Example illustrates a vasopermeability assay for evaluating the effects of occludin-modulating agents on endothelial cell permeability in vivo.
The ability of cyclic and linear peptides to increase vascular permeability was assessed utilizing the Miles assay (McClure et al., J. Pharmacological& Toxicological Meth. 32:49-521994). The peptides were dissolved in phosphate buffered saline (PBS) at a concentration of 100 μg/ml. Adult rats were given 100 μl subdermal injections of each peptide solution into their shaved backs, followed 15 minutes later by a single 250 μl injection of 1% Evans blue dissolved in PBS into their tail veins. The subdermal injection sites were visually monitored for the appearance of blue dye. Once the dye appeared (15 minutes after injection), each subdermal injection site was excised, weighed, and placed in 1 ml dimethylformamide for 24 hours to extract the dye. The optical density of the dye extracts was determined at 620 nm. The effects of injecting either phosphate buffered saline, phosphate buffered saline containing acetyl-QYLYHYCVVD-NH2 (SEQ ID NO:2) H-QYLYHYCVVD-NH2 (SEQ ID NO:2), or H-QYLYHYCVVD-OH (SEQ ID NO:2) into sites along the shaved back of a rat on the accumulation of Evans blue at the injection sites is shown in FIG. 5.

[2] = test system: Human aortic endothelial cells (HAEC); assay: Endothelial cell adhesion assay with occludin and VE-cadherin immunolocalization; type: cell-based; conditions: 1 hour
Source text: The effect of a modulating agent on endothelial cell adhesion may generally be evaluated using immunolocalization techniques. Human aortic endothelial cells (HAEC) may be cultured on fibronectin-coated coverslips (fibronectinmay be obtained from Sigma, St. Louis, Mo.) according to the procedures of Jaffe et al., J. Clin. Invest. 52:2745-2756, 1973. Briefly, human endothelial cells may be maintained in EGM (endothelial cell growth medium; Clonetics, San Diego, Calif.) and used for experiments at passage 4. Confluent cultures of HAEC may be exposed to either a candidate modulating agent (final concentration 100 μg/ml EGM), or EGM alone for 1 hour. The cells are then be fixed for 30 minutes at 4° C. in 95% ethanol, followed by fixation in acetone for 1 minute at 4° C. (Furuse et al., J. Cell Biol. 123:1777-1788, 1993). After fixation, the cells may be probed with either mouse anti-VE-cadherin antibodies (Hemeris, Sassenage, France; diluted 1:250 in 0.1% dried skim milk powder dissolved in PBS), or rabbit anti-occludin antibodies (Zymed, South San Francisco, Calif.; diluted 1:300 in 0.1% dried skim milk powder dissolved in PBS) for 1 hour at 37° C. The cells may then be washed with 0.1% dried skim milk powder dissolved in PBS (three washes, 5 minutes/wash), and probed with secondary antibodies (donkey anti-mouse Cy3, or donkey anti-rabbit Cy5 diluted 1:250 in 0.1% dried skim milk powder dissolved in PBS; Jackson Immunoresearch Laboratories Inc., Westgrove, Pa.) for 1 hour at 37° C. The cells may then be washed again with in 0.1% dried skim milk powder dissolved in PBS and mounted in a solution composed of 50% glycerol and 50% PBS to which phenylenediamine (Sigma, St. Louis, Mo.) has been added to a final concentration of 1 mg/ml. The sample may then be analyzed using a Bio-Rad MRC 1000 confocal microscope with Laser Sharp software version 2.1T (Bio-Rad, Hercules, Calif.). In general, 0.1 mg/ml of modulating agent results in the appearance of intercellular gaps within the monolayer cultures and a decrease of at least 50% in the surface expression of occludin and VE-cadherin, as compared to monolayer cultures that were not exposed to the modulating agent.
This Example illustrates an endothelial cell adhesion assay for evaluating the effects of occludin-modulating agents on endothelial cell adhesion.
Human aortic endothelial cells (HAEC) were cultured on fibronectin (Sigma, St. Louis, Mo.) according to the procedures of Jaffe et al., J. Clin. Invest. 52:2745-2756, 1973. Cells were maintained in EGM (endothelial cell growth medium; Clonetics, San Diego, Calif.) and used for experiments at passage 4.
HAEC were cultured on fibronectin-coated coverslips. Confluent cultures of HAEC were exposed to linear peptides (final concentration 100 μg/ml EGM), or EGM alone for 1 hour. […]

[3] = HAEC, 100 μg/ml peptide, immunofluorescence, vs untreated cells

Compound	dye extracted from excised injection sites (optical density of dimethylformamide extracts at 620 nm) [1]	accumulation of Evans blue at the injection sites (visual) [1]	surface expression of VE-cadherin [2, 3]	surface expression of occludin [2, 3]	endothelial cell adhesion (retraction of cells, gaps between cells) ([2]; confluent HAEC monolayers, 100 μg/ml peptide in EGM, vs untreated cells, FIG. 4)	formation of cobblestone-like monolayers ([2]; confluent HAEC, 100 μg/ml peptide, FIG. 4B)
CC(C)C[C@@H]1NC(=O)[C@@H](N)CSSC[C@@H](C(=O)O)NC(=O)[C@H](Cc2ccc(O)cc2)NC(=O)[C@H](Cc2c[nH]cn2)NC(=O)[C@H](Cc2ccc(O)cc2)NC1=O [H-CLYHYC-OH] (H-CLYHYC-OH; disulfide 1-6)	more dye was extracted	–	–	–	–	–
CC(=O)N[C@H]1CSSC[C@@H](C(N)=O)NC(=O)[C@H](Cc2ccc(O)cc2)NC(=O)[C@H](Cc2c[nH]cn2)NC(=O)[C@H](Cc2ccc(O)cc2)NC(=O)[C@H](CC(C)C)NC1=O [acetyl-CLYHYC-NH2] (Ac-CLYHYC-NH2; disulfide 1-6)	more dye was extracted from the sites injected with H-CLYHYC-OH	–	–	–	–	–
Ac-QYLYHYCVVD-NH2 [acetyl-QYLYHYCVVD-NH2]	more dye was extracted from the sites injected with H-QYLYHYCVVD-OH	more blue dye has accumulated at the sites where the peptide H-QYLYHYCVVD-OH	–	–	–	–
H-QYLYHYCVVD-NH2 [H-QYLYHYCVVD-NH2]	more dye was extracted from the sites injected with H-QYLYHYCVVD-OH	more blue dye has accumulated at the sites where the peptide H-QYLYHYCVVD-OH	–	–	–	–
H-QYLYHYCVVD-OH [H-QYLYHYCVVD-OH]	more dye was extracted	more blue dye has accumulated	greatly reduced	greatly reduced	adhesion is decreased between the cells	do not form cobblestone-like monolayers
